Data: US8124610B2, “Sodium channel inhibitors” (Icagen Inc., priority 2007, dated 2012)

Experiments:
hSCN3A = biological target: T1, hSCN3A (Homo sapiens, UniProt Q9NY46); experiment: Whole-cell patch-clamp electrophysiology (conventional or PatchXpress), HEK cells expressing hSCN3A, estimated IC-50; assay type: cell-based; details: estimated IC-50, HEK cells expressing hSCN3A; class symbols or bounds; read-out: SCN3A EIC-50
T1 construct: expressed in transfected cells
How it was run: (§1)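 Current through each channel was evoked by a 20 ms step to 0 mV following an 8 s conditioning prepulse at the cell's own half-inactivation voltage. Recordings used HEK lines stably expressing the channel, conventional or PatchXpress patch clamp, room temperature, pH 7.4 bath; inhibition taken as pre/post-compound amplitude change.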

hSCN9A = biological target: T2, hSCN9A (Homo sapiens, UniProt Q15858); experiment: Whole-cell patch-clamp electrophysiology (conventional or PatchXpress), HEK cells expressing hSCN9A, estimated IC-50; assay type: cell-based; details: estimated IC-50, HEK cells expressing hSCN9A; class symbols or bounds; read-out: SCN9A EIC-50
T2 construct: expressed in transfected cells
How it was run: as §1

T1 sequence (Q9NY46 whole entry): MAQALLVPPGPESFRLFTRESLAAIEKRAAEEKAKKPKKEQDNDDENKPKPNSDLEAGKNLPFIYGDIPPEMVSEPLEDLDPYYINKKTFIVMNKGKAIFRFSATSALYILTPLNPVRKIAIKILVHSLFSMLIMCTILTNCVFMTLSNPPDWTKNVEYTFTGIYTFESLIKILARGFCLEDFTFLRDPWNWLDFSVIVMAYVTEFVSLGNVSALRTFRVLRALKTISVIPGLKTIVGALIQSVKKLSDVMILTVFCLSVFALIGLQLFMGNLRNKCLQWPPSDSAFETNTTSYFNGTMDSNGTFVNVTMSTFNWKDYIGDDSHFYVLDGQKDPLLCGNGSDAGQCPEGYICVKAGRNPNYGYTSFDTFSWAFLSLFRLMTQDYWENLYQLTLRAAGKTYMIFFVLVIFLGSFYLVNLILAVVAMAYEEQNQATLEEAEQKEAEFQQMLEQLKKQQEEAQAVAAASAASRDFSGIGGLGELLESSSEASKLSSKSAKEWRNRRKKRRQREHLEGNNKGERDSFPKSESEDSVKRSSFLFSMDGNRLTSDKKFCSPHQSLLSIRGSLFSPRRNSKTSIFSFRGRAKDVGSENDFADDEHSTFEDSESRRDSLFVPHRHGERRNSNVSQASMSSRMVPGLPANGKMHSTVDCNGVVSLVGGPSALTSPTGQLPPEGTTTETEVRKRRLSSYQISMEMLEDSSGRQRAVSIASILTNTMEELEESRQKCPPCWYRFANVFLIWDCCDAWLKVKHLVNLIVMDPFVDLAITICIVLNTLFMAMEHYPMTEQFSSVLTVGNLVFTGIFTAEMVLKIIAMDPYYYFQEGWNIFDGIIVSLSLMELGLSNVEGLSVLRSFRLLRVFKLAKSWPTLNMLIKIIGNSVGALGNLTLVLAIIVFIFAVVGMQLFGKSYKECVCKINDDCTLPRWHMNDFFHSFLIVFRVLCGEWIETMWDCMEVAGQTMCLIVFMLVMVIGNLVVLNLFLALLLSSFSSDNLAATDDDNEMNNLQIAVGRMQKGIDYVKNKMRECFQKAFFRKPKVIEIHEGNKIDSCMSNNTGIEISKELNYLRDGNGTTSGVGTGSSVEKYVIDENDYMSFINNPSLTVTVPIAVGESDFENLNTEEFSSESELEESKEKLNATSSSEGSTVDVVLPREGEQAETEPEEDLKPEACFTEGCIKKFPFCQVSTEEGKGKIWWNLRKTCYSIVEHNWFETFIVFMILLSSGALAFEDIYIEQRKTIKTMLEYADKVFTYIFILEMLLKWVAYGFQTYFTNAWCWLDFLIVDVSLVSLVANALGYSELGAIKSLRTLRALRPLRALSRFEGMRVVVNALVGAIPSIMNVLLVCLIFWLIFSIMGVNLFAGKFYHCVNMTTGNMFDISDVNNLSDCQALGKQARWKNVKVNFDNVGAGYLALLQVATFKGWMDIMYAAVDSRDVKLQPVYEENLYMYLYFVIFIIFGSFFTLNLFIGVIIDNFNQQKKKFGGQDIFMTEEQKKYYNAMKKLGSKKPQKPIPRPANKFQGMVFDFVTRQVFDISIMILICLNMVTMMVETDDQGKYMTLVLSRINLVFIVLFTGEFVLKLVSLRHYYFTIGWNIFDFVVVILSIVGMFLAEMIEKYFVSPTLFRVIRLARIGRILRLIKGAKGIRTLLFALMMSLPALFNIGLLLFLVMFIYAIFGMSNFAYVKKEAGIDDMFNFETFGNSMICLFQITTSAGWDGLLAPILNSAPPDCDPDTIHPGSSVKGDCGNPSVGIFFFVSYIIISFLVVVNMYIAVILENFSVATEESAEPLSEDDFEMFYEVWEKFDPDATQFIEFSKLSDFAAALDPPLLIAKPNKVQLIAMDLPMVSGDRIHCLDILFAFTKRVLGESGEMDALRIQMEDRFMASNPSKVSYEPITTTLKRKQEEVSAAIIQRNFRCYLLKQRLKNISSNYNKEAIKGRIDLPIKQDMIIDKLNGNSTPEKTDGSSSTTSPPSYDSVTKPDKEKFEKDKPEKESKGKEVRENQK
T2 sequence (Q15858 whole entry): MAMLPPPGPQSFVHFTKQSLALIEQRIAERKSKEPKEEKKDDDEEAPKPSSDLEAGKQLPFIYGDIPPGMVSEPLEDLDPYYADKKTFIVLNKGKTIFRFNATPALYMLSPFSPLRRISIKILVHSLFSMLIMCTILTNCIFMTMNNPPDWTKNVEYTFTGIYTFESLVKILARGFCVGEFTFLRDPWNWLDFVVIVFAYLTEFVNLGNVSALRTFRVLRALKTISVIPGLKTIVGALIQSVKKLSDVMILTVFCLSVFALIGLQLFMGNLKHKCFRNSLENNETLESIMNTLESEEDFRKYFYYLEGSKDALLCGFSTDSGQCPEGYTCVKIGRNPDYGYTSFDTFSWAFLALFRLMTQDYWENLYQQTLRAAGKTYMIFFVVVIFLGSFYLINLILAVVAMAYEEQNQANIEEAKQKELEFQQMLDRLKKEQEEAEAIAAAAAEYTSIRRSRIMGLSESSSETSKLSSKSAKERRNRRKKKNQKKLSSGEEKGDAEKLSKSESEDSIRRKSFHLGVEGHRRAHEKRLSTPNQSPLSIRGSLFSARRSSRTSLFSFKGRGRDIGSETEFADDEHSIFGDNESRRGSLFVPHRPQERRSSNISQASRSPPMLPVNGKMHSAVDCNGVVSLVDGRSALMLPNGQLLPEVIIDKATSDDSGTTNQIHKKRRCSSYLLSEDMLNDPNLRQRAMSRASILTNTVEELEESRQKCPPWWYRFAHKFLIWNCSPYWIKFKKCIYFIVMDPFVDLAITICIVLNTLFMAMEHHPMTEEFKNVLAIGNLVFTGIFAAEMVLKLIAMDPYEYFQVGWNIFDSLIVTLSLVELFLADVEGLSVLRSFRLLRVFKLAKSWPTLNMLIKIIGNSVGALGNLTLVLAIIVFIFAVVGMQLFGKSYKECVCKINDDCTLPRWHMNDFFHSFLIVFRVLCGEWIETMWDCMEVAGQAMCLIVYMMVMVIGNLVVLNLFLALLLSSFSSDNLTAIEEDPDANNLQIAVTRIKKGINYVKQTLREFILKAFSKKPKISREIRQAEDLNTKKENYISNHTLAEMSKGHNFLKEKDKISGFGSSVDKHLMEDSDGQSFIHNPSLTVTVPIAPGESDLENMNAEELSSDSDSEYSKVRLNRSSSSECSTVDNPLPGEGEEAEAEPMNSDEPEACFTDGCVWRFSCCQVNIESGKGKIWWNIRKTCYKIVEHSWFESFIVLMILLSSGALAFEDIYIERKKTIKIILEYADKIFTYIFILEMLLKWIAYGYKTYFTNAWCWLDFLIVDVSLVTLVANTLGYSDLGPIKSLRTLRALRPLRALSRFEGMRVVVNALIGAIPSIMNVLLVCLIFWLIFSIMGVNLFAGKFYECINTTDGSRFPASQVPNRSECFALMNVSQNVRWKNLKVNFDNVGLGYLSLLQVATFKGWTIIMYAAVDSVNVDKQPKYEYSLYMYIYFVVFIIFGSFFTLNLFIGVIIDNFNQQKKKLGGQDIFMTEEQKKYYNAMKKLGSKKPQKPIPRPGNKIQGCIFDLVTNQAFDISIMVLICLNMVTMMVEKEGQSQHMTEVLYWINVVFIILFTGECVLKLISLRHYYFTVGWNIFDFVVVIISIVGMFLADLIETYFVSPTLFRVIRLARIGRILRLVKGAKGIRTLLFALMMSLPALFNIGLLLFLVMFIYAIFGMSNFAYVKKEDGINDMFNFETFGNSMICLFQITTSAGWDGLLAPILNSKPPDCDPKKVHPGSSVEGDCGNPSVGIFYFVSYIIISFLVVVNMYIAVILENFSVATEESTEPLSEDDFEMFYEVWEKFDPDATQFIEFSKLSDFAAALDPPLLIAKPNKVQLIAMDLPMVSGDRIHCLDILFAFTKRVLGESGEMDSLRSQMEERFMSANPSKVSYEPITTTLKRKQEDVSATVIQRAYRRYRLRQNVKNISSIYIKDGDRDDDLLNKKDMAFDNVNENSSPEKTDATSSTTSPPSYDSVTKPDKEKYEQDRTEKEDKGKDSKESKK

| Structure (SMILES) | IC50 (hSCN3A) | IC50 (hSCN9A) |
| --- | --- | --- |
| O=S(=O)(Nc1nccs1)c1ccc(Nc2nc(C3(c4ccc(Cl)cc4)CCCC3)cs2)cc1 [Compound 64, 4-(4-(1-(4-chlorophenyl)cyclopentyl)thiazol-2-ylamino)-N-(thiazol-2-yl)benzenesulfonamide] | < 2000 nM | > 1000 nM |
| O=S(=O)(Nc1nccs1)c1ccc(Nc2nc(CNCCCCc3ccccc3)cs2)cc1 [Compound 69, 4-(4-((4-phenylbutylamino)methyl)thiazol-2-ylamino)-N-(thiazol-2-yl)benzenesulfonamide] | < 2000 nM | < 2000 nM |
| CN(Cc1csc(Nc2ccc(S(=O)(=O)Nc3nccs3)cc2)n1)C(c1ccccc1)c1ccccc1 [Compound 70, 4-(4-((benzhydryl(methyl)amino)methyl)thiazol-2-ylamino)-N-(thiazol-2-yl)benzenesulfonamide] | < 2000 nM | > 1000 nM |
| O=S(=O)(Nc1nccs1)c1ccc(Nc2nc(CNCc3ccc(C(F)(F)F)cc3)cs2)cc1 [Compound 71, N-(thiazol-2-yl)-4-(4-((4-(trifluoromethyl)benzylamino)methyl)thiazol-2-ylamino)benzenesulfonamide] | < 2000 nM | 2000 to 10000 nM |
| O=[N+]([O-])c1ccc(CNCc2csc(Nc3ccc(S(=O)(=O)Nc4nccs4)cc3)n2)cc1 [Compound 72, 4-(4-((4-nitrobenzylamino)methyl)thiazol-2-ylamino)-N-(thiazol-2-yl)benzenesulfonamide] | < 2000 nM | 2000 to 10000 nM |
| COC(=O)c1sc(Nc2ccc(S(=O)(=O)Nc3nccs3)cc2)nc1C [Compound 77, methyl 4-methyl-2-(4-(N-thiazol-2-ylsulfamoyl)phenylamino)thiazole-5-carboxylate] | < 2000 nM | > 3000 nM |
| O=S(=O)(Nc1nccs1)c1ccc(Nc2nccc(OCC3CCCCC3)n2)cc1 [Compound 81, 4-(4-(cyclohexylmethoxy)pyrimidin-2-ylamino)-N-(thiazol-2-yl)benzenesulfonamide] | < 2000 nM | > 10000 nM |
| O=S(=O)(Nc1nccs1)c1ccc(Nc2nc(-c3ccc(C(F)(F)F)cc3)cs2)cc1 [Compound 84, N-(thiazol-2-yl)-4-(4-(4-(trifluoromethyl)phenyl)thiazol-2-ylamino)benzenesulfonamide] | < 2000 nM | < 2000 nM |
| COc1ccnc(Nc2ccc(S(=O)(=O)Nc3nccs3)cc2)n1 [Compound 85, 4-(4-methoxypyrimidin-2-ylamino)-N-(thiazol-2-yl)benzenesulfonamide] | > 1000 nM | > 3000 nM |
| O=S(=O)(Nc1nccs1)c1ccc(Nc2nc(-c3ccc(C(F)(F)F)cc3F)cs2)cc1 [Compound 90, 4-(4-(2-fluoro-4-(trifluoromethyl)phenyl)thiazol-2-ylamino)-N-(thiazol-2-yl)benzenesulfonamide] | < 2000 nM | > 1000 nM |
| O=S(=O)(Nc1nccs1)c1ccc(Nc2cncc(C(c3ccccc3)c3ccccc3)n2)cc1 [Compound 92, 4-(6-benzhydrylpyrazin-2-ylamino)-N-(thiazol-2-yl)benzenesulfonamide] | < 2000 nM | 2000 to 10000 nM |
| O=S(=O)(Nc1nccs1)c1ccc(Nc2cccc(C(c3ccccc3)c3ccccc3)n2)cc1 [Compound 93, 4-(6-benzhydrylpyridin-2-ylamino)-N-(thiazol-2-yl)benzenesulfonamide] | < 2000 nM | > 1000 nM |
| CC(C)(Oc1ccc(Cl)cc1)c1csc(Nc2ccc(S(=O)(=O)Nc3nccs3)cc2)n1 [Compound 97, 4-(4-(2-(4-chlorophenoxy)propan-2-yl)thiazol-2-ylamino)-N-(thiazol-2-yl)benzenesulfonamide] | < 2000 nM | > 1000 nM |
| O=S(=O)(Nc1nccs1)c1ccc(Nc2cncc(Cc3cc(F)cc(F)c3)n2)cc1 [Compound 98, 4-(6-(3,5-difluorobenzyl)pyrazin-2-ylamino)-N-(thiazol-2-yl)benzenesulfonamide] | < 2000 nM | 2000 to 10000 nM |
| O=S(=O)(Nc1nccs1)c1ccc(Nc2nc3cc(Cl)ccc3[nH]2)cc1 [Compound 99, 4-(5-chloro-1H-benzo[d]imidazol-2-ylamino)-N-(thiazol-2-yl)benzenesulfonamide] | < 2000 nM | 2000 to 10000 nM |
| Cn1c(Nc2ccc(S(=O)(=O)Nc3nccs3)cc2)nc2cc(Cl)ccc21 [Compound 100, 4-(5-chloro-1-methyl-1H-benzo[d]imidazol-2-ylamino)-N-(thiazol-2-yl)benzenesulfonamide] | < 2000 nM | 2000 to 10000 nM |
| Cn1c(Nc2ccc(S(=O)(=O)Nc3nccs3)cc2)nc2ccc(Cl)cc21 [Compound 101, 4-(6-chloro-1-methyl-1H-benzo[d]imidazol-2-ylamino)-N-(thiazol-2-yl)benzenesulfonamide] | < 2000 nM | 2000 to 10000 nM |

Second part, the compound after the results:

| IC50 (hSCN3A) | IC50 (hSCN9A) | Structure (SMILES) |
| --- | --- | --- |
| < 2000 nM | < 2000 nM | O=S(=O)(Nc1nccs1)c1ccc(Nc2nc(CNCc3ccc(Cl)cc3)cs2)cc1 [Compound 65, 4-(4-((4-chlorobenzylamino)methyl)thiazol-2-ylamino)-N-(thiazol-2-yl)benzenesulfonamide] |
| > 1000 nM | > 3000 nM | COc1ccc(CCNCc2csc(Nc3ccc(S(=O)(=O)Nc4nccs4)cc3)n2)cc1OC [Compound 66, 4-(4-((3,4-dimethoxyphenethylamino)methyl)thiazol-2-ylamino)-N-(thiazol-2-yl)benzenesulfonamide] |
| < 2000 nM | 2000 to 10000 nM | CN(CCc1ccccc1)Cc1csc(Nc2ccc(S(=O)(=O)Nc3nccs3)cc2)n1 [Compound 67, 4-(4-((methyl(phenethyl)amino)methyl)thiazol-2-ylamino)-N-(thiazol-2-yl)benzenesulfonamide] |
| > 1000 nM | 2000 to 10000 nM | CCN(CC)Cc1csc(Nc2ccc(S(=O)(=O)Nc3nccs3)cc2)n1 [Compound 68, 4-(4-((diethylamino)methyl)thiazol-2-ylamino)-N-(thiazol-2-yl)benzenesulfonamide] |
| < 2000 nM | 2000 to 10000 nM | CN(C)c1ccc(CNCc2csc(Nc3ccc(S(=O)(=O)Nc4nccs4)cc3)n2)cc1 [Compound 73, 4-(4-((4-(dimethylamino)benzylamino)methyl)thiazol-2-ylamino)-N-(thiazol-2-yl)benzenesulfonamide] |
| 2000 to 10000 nM | 2000 to 10000 nM | O=S(=O)(Nc1nccs1)c1ccc(Nc2nc(CNC3CCCCCC3)cs2)cc1 [Compound 74, 4-(4-((cycloheptylamino)methyl)thiazol-2-ylamino)-N-(thiazol-2-yl)benzenesulfonamide] |
| < 2000 nM | > 1000 nM | CN(CCc1ccncc1)Cc1csc(Nc2ccc(S(=O)(=O)Nc3nccs3)cc2)n1 [Compound 75, 4-(4-((methyl(2-(pyridin-4-yl)ethyl)amino)methyl)thiazol-2-ylamino)-N-(thiazol-2-yl)benzenesulfonamide] |
| 2000 to 10000 nM | 2000 to 10000 nM | COc1ccc(CNCc2csc(Nc3ccc(S(=O)(=O)Nc4nccs4)cc3)n2)c(OC)c1 [Compound 76, 4-(4-((2,4-dimethoxybenzylamino)methyl)thiazol-2-ylamino)-N-(thiazol-2-yl)benzenesulfonamide] |
| 2000 to 10000 nM | > 1000 nM | Cc1csc(Nc2ccc(S(=O)(=O)Nc3nccs3)cc2)n1 [Compound 78, 4-(4-methylthiazol-2-ylamino)-N-(thiazol-2-yl)benzenesulfonamide] |
| < 2000 nM | < 2000 nM | O=S(=O)(Nc1nccs1)c1ccc(Nc2nc(Cc3ccc(F)cc3F)cs2)cc1 [Compound 79, 4-(4-(2,4-difluorobenzyl)thiazol-2-ylamino)-N-(thiazol-2-yl)benzenesulfonamide] |
| 2000 to 10000 nM | > 1000 nM | Cc1nc(Nc2ccc(S(=O)(=O)Nc3nccs3)cc2)sc1C [Compound 80, 4-(4,5-dimethylthiazol-2-ylamino)-N-(thiazol-2-yl)benzenesulfonamide] |
| < 2000 nM | < 2000 nM | O=S(=O)(Nc1nccs1)c1ccc(Nc2nc(CSc3ccc(F)cc3)cs2)cc1 [Compound 82, 4-(4-((4-fluorophenylthio)methyl)thiazol-2-ylamino)-N-(thiazol-2-yl)benzenesulfonamide] |
| < 2000 nM | 2000 to 10000 nM | O=S(=O)(Nc1nccs1)c1ccc(Nc2nc(C(F)(F)F)cs2)cc1 [Compound 83, N-(thiazol-2-yl)-4-(4-(trifluoromethyl)thiazol-2-ylamino)benzenesulfonamide] |
| 2000 to 10000 nM | > 1000 nM | O=S(=O)(Nc1nccs1)c1ccc(Nc2nc(C[S+]([O-])c3ccc(F)cc3)cs2)cc1 (stereo not shown) [Compound 89, 4-(4-((4-fluorophenylsulfinyl)methyl)thiazol-2-ylamino)-N-(thiazol-2-yl)benzenesulfonamide] |
| < 2000 nM | < 2000 nM | O=S(=O)(Nc1nccs1)c1ccc(Nc2nc(Cc3ccc(Cl)cc3)cs2)cc1 [Compound 91, 4-(4-(4-chlorobenzyl)thiazol-2-ylamino)-N-(thiazol-2-yl)benzenesulfonamide] |
| < 2000 nM | < 2000 nM | O=S(=O)(Nc1nccs1)c1ccc(Nc2nc(CCCOc3ccc(Cl)cc3)cs2)cc1 [Compound 94, 4-(4-(3-(4-chlorophenoxy)propyl)thiazol-2-ylamino)-N-(thiazol-2-yl)benzenesulfonamide] |
| < 2000 nM | < 2000 nM | O=S(=O)(Nc1nccs1)c1ccc(Nc2nc(COc3ccc(Cl)cc3Cl)cs2)cc1 [Compound 95, 4-(4-((2,4-dichlorophenoxy)methyl)thiazol-2-ylamino)-N-(thiazol-2-yl)benzenesulfonamide] |
| < 2000 nM | < 2000 nM | Cc1cc(Cl)ccc1OCc1csc(Nc2ccc(S(=O)(=O)Nc3nccs3)cc2)n1 [Compound 96, 4-(4-((4-chloro-2-methylphenoxy)methyl)thiazol-2-ylamino)-N-(thiazol-2-yl)benzenesulfonamide] |
